One compound from US20080075796A1, “Compositions and Methods for Controlling Insects” (TyraTech, Inc., priority 2003, published 2008) can be followed below.

Assay [1] addresses T1, Or83b receptor (Drosophila melanogaster, UniProt Q9VNB5).
T1 construct: His (from vector pAc5.1/V5-His B) (C); expressed in transfected cells
T1 sequence (Q9VNB5 1-486): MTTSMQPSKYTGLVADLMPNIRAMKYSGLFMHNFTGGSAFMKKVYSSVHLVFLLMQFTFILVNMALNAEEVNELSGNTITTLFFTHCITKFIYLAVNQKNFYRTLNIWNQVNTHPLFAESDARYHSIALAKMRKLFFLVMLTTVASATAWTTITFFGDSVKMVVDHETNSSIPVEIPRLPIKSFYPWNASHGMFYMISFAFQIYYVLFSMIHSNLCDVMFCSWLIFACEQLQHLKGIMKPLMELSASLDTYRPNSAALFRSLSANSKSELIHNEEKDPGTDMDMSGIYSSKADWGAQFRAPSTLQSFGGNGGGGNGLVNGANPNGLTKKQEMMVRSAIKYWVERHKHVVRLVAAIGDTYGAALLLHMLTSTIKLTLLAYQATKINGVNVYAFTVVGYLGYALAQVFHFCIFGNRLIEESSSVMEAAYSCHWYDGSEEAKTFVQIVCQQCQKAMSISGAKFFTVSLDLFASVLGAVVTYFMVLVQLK
The assay is described as follows: cAMP production in Schneider cells expressing Or83b receptor. Type of assay: cell-based. The method, then:
Cells are grown on dishes and the media changed the day before the treatment. When cells are approximately 95% confluent, media is aspirated and the cells are washed one time with about 5 mL of about 27° C. insect saline (170 mM NaCl, 6.0 mM KCl, 2.0 mM NaHCO3, 17.0 mM glucose, 6.0 mM NaH2PO4, 2.0 mM CaCl2, 4.0 mM MgCl2; pH 7.0). About 20 mL of insect saline is added, and cells are harvested by gentle scraping. An aliquot of the cells is counted by hemocytometer, and the cells are then centrifuged for about 5 minutes at about 1000 RPM. Cells are resuspended to give about 3×10^6 cells per mL. IBMX is added to about 200 μM. Then about 1 mL of cell suspension is aliquoted for treatment. Forskolin (cAMP inducing agent), tyramine or different composition candidates are added, and the cells are incubated at about 27° C. for about 10 minutes.
Treated cells are centrifuged at about 13000 g for about 10 seconds. The solution is aspirated and about 1 mL of about −20° C. 70% ethanol is added. The cell pellet is disrupted by vortexing and the samples placed at about −20° C. overnight. Following the ethanol extraction, cellular debris is pelleted by centrifugation at about 13000 g for about 5 minutes. The supernatant is transferred to a tube and lyophilized to dryness in a rotary speed-vac. The resulting extract is resuspended in about 100 μL TE and used for the cAMP assay.
The cAMP assay is based on competition binding between endogenous cAMP and ^3H-cAMP to a cAMP binding protein. The ^3H-cAMP Biotrak system (Amersham Biosciences) is used for this assay as per the manufacturer's instructions. Briefly, about 50 μL of the cellular extract is incubated with about 50 μL ^3H-cAMP and about 100 μL cAMP binding protein in an ice bath for about 2-4 hours. Charcoal (about 100 μL) is then added and the solution centrifuged for about 3 minutes at about 4° C. About 200 μL of the reaction mixture is removed and levels of ^3H-cAMP are determined by scintillation counting. Levels of endogenous cAMP from the cells are calculated using a standard curve with cold cAMP ranging from about 0 to 16 pmol per reaction.
To ensure that the cAMP cascade in this cell model is functionally active, forskolin, a cAMP inducer, is used as standard agent. Cyclic-AMP levels are measured using the cAMP assay described above in Example 2. […]
To determine the effect of various plant essential oils on intracellular cAMP production and the tyramine-dependent changes of cAMP in cells expressing one of the olfactory receptors, cells from each cell model are treated with LFO (about 50 μg/ml) and BSO (about 50 μg/ml) in the presence and absence of tyramine (about 20 μM) and forskolin (about 10 μM) and intracellular cAMP is thereafter quantified using the cAMP assay described above in Example 2.
For orientation: Changes in cAMP serve as a functional read-out for many G protein-coupled receptors.

For assay [2], the target named is T1, Or83b receptor. The assay is described as follows: Intracellular Ca^2+ mobilization in Schneider cells expressing Or83b receptor. Type of assay: cell-based. Conditions: ionomycin about 2 μM, tyramine about 10 μM. The method, then: Intracellular calcium ion concentrations ([Ca^2+]i) are measured by using the acetoxymethyl (AM) ester of the fluorescent indicator fura-2 (Enan, et al., Biochem. Pharmacol vol 51, 447-454). In this study, cells expressing tyramine receptor are grown under standard conditions. A cell suspension is prepared in assay buffer (140 mM NaCL, 10 mM HEPES, 10 mM glucose, 5 mM KCl, 1 mM CaCl2, 1 mM MgCl2) and cell number adjusted to about 2×10^6 cells per ml. Briefly, about 1.0 ml cell suspension (about 2×10^6 cells) is incubated with about 5 μM Fura 2/AM for about 30 min at about 28° C. After incubation, the cells are pelleted at about 3700 rpm for about 10 sec at room temperature and then resuspended in about 1.5 ml assay buffer. [Ca^2+]i changes are analyzed in spectrofluorometer in the presence and absence of test chemicals. Excitation wave lengths are about 340 nm (generated by Ca^2+-bound fura-2) and about 380 nm (corresponding to Ca^2+-free fura-2). The fluorescence intensity is monitored at an emission wave length of about 510 nm. No absorbance of fluorescence artifacts are observed with any of the compounds used. The ratio of about 340/380 nm is calculated and plotted as a function of time.
Intracellular Ca^2+ levels are measured using the method described above in Example 3.

For the compound `NCCc1ccc(O)cc1` [tyramine], the “increase of cAMP production beyond the effect of forskolin by itself” value on Or83b receptor [1] (forskolin-pretreated cells (about 10 μM)) is given as 10-13%. The “increase in cAMP production” value at Or83b receptor [1] (tyramine about 20 μM, LFO and BSO about 50 μg/ml) is given as “approximately 34%”. The “increase in intracellular calcium” value on Or83b receptor [2] is about 1.18 fold.
